Experimental data reported in the NIST ThermoML archive (doi:10.1021/je060108f).

What was measured:
[1] = wn = mass fraction of the nth substance listed; settings: 101 kPa, Liquid
[2] = 101 kPa, Liquid

OCCC1CCCCN1 (stereo not given) [2-(2-hydroxyethyl)piperidine] + O
[1]
Settings	mass density [kg/m3]	viscosity [mPa·s]
288 K, w1 = 0.05	1001.8	1.364
288 K, w1 = 0.1	1004.7	1.775
288 K, w1 = 0.15	1005	2.313
288 K, w1 = 0.2	1011.1	2.935
288 K, w1 = 0.25	1014.5	3.921
288 K, w1 = 0.3	1017.3	5.218
293 K, w1 = 0.05	1000.1	1.298
293 K, w1 = 0.1	1002.3	1.655
293 K, w1 = 0.15	1003.2	2.097
293 K, w1 = 0.2	1008.3	2.696
293 K, w1 = 0.25	1012.5	3.506
293 K, w1 = 0.3	1014.9	4.697
298 K, w1 = 0.05	998.9	1.116
298 K, w1 = 0.1	1001.6	1.423
298 K, w1 = 0.15	1002.4	1.762
298 K, w1 = 0.2	1005.9	2.289
298 K, w1 = 0.25	1010.1	2.968
298 K, w1 = 0.3	1012.7	3.858
303 K, w1 = 0.05	997.6	1.064
303 K, w1 = 0.1	999.6	1.316
303 K, w1 = 0.15	1001.4	1.599
303 K, w1 = 0.2	1003.7	2.037
303 K, w1 = 0.25	1007.5	2.603
303 K, w1 = 0.3	1009.6	3.429
308 K, w1 = 0.05	996	0.959
308 K, w1 = 0.1	997.4	1.216
308 K, w1 = 0.15	998.9	1.489
308 K, w1 = 0.2	1001.7	1.869
308 K, w1 = 0.25	1003.1	2.382
308 K, w1 = 0.3	1006.4	3.069
313 K, w1 = 0.05	994.3	0.828
313 K, w1 = 0.1	996.5	1.015
313 K, w1 = 0.15	997.9	1.253
313 K, w1 = 0.2	999.3	1.511
313 K, w1 = 0.25	999.9	1.938
313 K, w1 = 0.3	1001.8	2.468
318 K, w1 = 0.05	992.4	0.776
318 K, w1 = 0.1	994.2	0.965
318 K, w1 = 0.15	995.5	1.156
318 K, w1 = 0.2	996.7	1.429
318 K, w1 = 0.25	998.8	1.795
318 K, w1 = 0.3	1000.2	2.229
323 K, w1 = 0.05	990.3	0.684
323 K, w1 = 0.1	991.7	0.828
323 K, w1 = 0.15	993.5	0.995
323 K, w1 = 0.2	994.7	1.193
323 K, w1 = 0.25	996.1	1.523
323 K, w1 = 0.3	997.3	1.891
328 K, w1 = 0.05	987.7	0.651
328 K, w1 = 0.1	988.7	0.778
328 K, w1 = 0.15	990.6	0.975
328 K, w1 = 0.2	991.9	1.173
328 K, w1 = 0.25	993	1.39
328 K, w1 = 0.3	994.3	1.769
333 K, w1 = 0.05	983.5	0.585
333 K, w1 = 0.1	985.9	0.695
333 K, w1 = 0.15	987.9	0.837
333 K, w1 = 0.2	988.7	1.013
333 K, w1 = 0.25	990.3	1.229
333 K, w1 = 0.3	991.3	1.536

CN(CCO)CCO [N-methyldiethanolamine]
[2]
Settings	mass density [kg/m3]	viscosity [mPa·s]
288 K	1044.1	142.02
313 K	1027.2	34.73
333 K	1012.6	14.66

CN(CCO)CCO [N-methyldiethanolamine] + O
[1]
Settings	mass density, w1 = 0.1 [kg/m3]	mass density, w1 = 0.2 [kg/m3]	mass density, w1 = 0.3 [kg/m3]	mass density, w1 = 1 [kg/m3]	viscosity, w1 = 0.1 [mPa·s]	viscosity, w1 = 0.2 [mPa·s]	viscosity, w1 = 0.3 [mPa·s]	viscosity, w1 = 1 [mPa·s]
288 K	1007.9	1016.7	1030.7	1044.1	1.703	2.624	4.399	142.02
313 K	1000.4	1008.6	1019.3	1027.2	0.899	1.305	1.929	34.73
333 K	990.2	999.5	1007.1	1012.6	0.63	0.86	1.218	14.66
